Reference: ChEMBL document CHEMBL3507680, “University of Dundee, Gates Library screen for HepG2 cell viability”

Test: Human HepG2 cell viability assay in 384 well format
Assay type: toxicity, cell-based
Design: dose 125 nL, time 70.5 hour; cytotoxicity at 70.5 h: concentration not given beside the values
Conditions: HepG2 cells, read-out: Inhibition

| SMILES | cytotoxicity at 70.5 h [%] |
| --- | --- |
| COc1cccc(CN2CCCCCC2c2cccs2)c1OC (stereo not drawn) | -10.1 |
| CCC(CC)NC(=O)c1ccc2nnc(C3CCN(C(C)=O)C3)n2c1 (stereo not drawn) | 5.94 |
| Cc1ccc(-c2cc(CS(=O)(=O)NC3CCCNC3=O)on2)cc1 (stereo not drawn) | 0.495 |
| CCOc1cccc(COC(=O)c2scnc2C)n1 | 5.38 |
| CCSc1ncc(CN2CCN(c3nc(C)ncc3C)CC2)cn1 | -11.5 |
| CC(=O)c1cc(Br)cc(F)c1OCC(=O)NC(C)C | -4.15 |
| CC(C)CNC(=O)N1CCC2(CCCO2)C1 (stereo not drawn) | -1.61 |
| COc1cc2c(cc1CN1C[C@@H](CN3CCOCC3)[C@@H](CO)C1)CCC2 | -2.99 |
| CC(C)n1nnc2c(sc3nc(N4CCOCC4)c4c(c32)CCC4)c1=O | -13.1 |
| Cc1nn(C)c2c(=O)n(Cc3ccc(F)cc3)nnc12 | -7.56 |
| COC(C)(C)Cn1ccnc1-c1cccc(C(C)N(C)C)c1 (stereo not drawn) | -7.08 |
| Cc1cc(-c2cnc(NC3CCCC3)nc2-c2ccoc2C)on1 | -8.8 |
| CCn1nc(C(C)C)cc1C(=O)N1CC(OCc2ccccc2F)C1 | 0.716 |
| CNc1nc(C)c(C(=O)N2CCCCC2CCN2CCOCC2)s1 (stereo not drawn) | -0.313 |
| CCS(=O)(=O)NCCNc1c(C#N)cnc2c(C)cc(F)cc12 | 2.54 |
| COc1c(C)cnc(CN2CCn3c(nnc3C(C)C)C2)c1C | -1.82 |
| CC(=O)N1CCC(C(=O)NCc2ncc(-c3ccccc3)o2)CC1 | -14.2 |
| CN(C)S(=O)(=O)N1CC[C@]2(O)CCN(CCc3cccc(F)c3)C[C@@H]2C1 | -11.2 |
| O=C(NCc1ccc2c(c1)CCCO2)C1CNCCO1 (stereo not drawn) | 48.5 |
| Cc1csc(CCCNC(C)CC(=O)Nc2cccc(C)c2C)n1 (stereo not drawn) | -4.67 |
| Cc1ccc(CNC(=O)C2CCNC(=O)C2)c(OCCC(C)C)c1 (stereo not drawn) | 0.635 |
| Cc1ccc(N2CCC3(CCC(=O)N3Cc3ccncc3)CC2)nn1 | 0.778 |
| COc1ccc(N2CCC(N3CCOC(C(F)(F)F)C3)CC2)cc1 (stereo not drawn) | -7.02 |

| SMILES | cytotoxicity at 70.5 h [%] |
| --- | --- |
| Cc1ccccc1C(O)c1ccncc1 (stereo not drawn) | -8.85 |
| COc1ccc(NC(=O)c2ccccc2NCc2ncnn2C)cc1 | -19.9 |
| CN(Cc1cccc2cnccc12)C(=O)CCc1n[nH]c2c1CCCC2 | -9.31 |
| Cc1cc(NC(=O)C(C)N2CCN(c3nc(C)ns3)CC2)on1 (stereo not drawn) | 4.54 |
| CN(C)[C@@H]1CCN(C(=O)c2cccn2C)[C@H]1Cc1cnn(C)c1 | -11.3 |
| O=C(C1CC1)N1CCC2(CCN(Cc3cccc(F)c3)CC2)CC1 | -0.144 |
| CC(C)CC(=O)N1C[C@@H]2CCN(c3cnccn3)C[C@@H]2C1 | -5.35 |
| CC(C)Cn1c(=O)n(CCCn2cccn2)c2cc(C(=O)O)cnc21 | -10.8 |
| c1cnc2[nH]c(C3CCCNC3)c(CN3CCCOCC3)c2c1 (stereo not drawn) | -5.16 |
| COc1cc2cc(C)c(SCCN3CCCC3)nc2cc1OC | -6.08 |
| C[C@@H]1CN(C(=O)CCCN2CCCC2)CC[C@@]1(O)C1CCOCC1 | -3.8 |
| O=C(C1CCN(c2ncnc3cccc(F)c23)CC1)N1CCCC1 | 8.28 |
| COCCN1CCC2(CC1)CC(NC(=O)C1CC1)c1ccccc1O2 (stereo not drawn) | -5.15 |
| N#Cc1cccc(CN2C[C@@H]3CN(c4ncccn4)C[C@@H]3C2)c1 | -6.36 |
| CC(C)c1cc(C(=O)NCCN2CCCS2(=O)=O)n[nH]1 | -19.6 |
| CCC1CN(CC(=O)NCc2ccco2)CCO1 (stereo not drawn) | 2.02 |
| CC(=O)N1CCC(NCc2cccnc2N(C)Cc2ccccc2)CC1 | -6.72 |
| O=C1CCc2cc(-c3csc(CCN4CCCC4=O)n3)ccc2N1 | -14.6 |
| COCc1noc(Cc2cc(Cl)c3c(c2)OCCCO3)n1 | -4.84 |
| CCn1ccnc1CN1CCN(Cc2cccc(C#N)c2)CC1 | 21.4 |
| CCc1ccc(CN(Cc2ccccc2)CC(C)CO)nc1 (stereo not drawn) | -6.55 |
| O=C(c1ccno1)N1CC[C@@H]2O[C@@H](COCCN3CCCC3)CC[C@@H]21 | -17.9 |
| COCC(=O)N1CCC2(CC1)CN(c1cncnc1)C(=O)CO2 | -12 |

| SMILES | cytotoxicity at 70.5 h [%] |
| --- | --- |
| O=C1NC(C(=O)NCc2cccnc2Oc2ccc(F)c(F)c2)CO1 (stereo not drawn) | -21.4 |
| CC(COCC(F)(F)F)NC(=O)c1ccc(-c2ccco2)[nH]c1=O (stereo not drawn) | -1.67 |
| COCC(O)CN(C)C(=O)NC1CCN(S(C)(=O)=O)CC1 (stereo not drawn) | -7.83 |
| COCC1c2c(cnn2C)CCN1C(=O)c1cscn1 (stereo not drawn) | -1.37 |
| CCOCC1COCCC12CCN(C(=O)CC1=CCCCC1)CC2 (stereo not drawn) | -5.12 |
| Cc1nnc(N2C[C@H](OCC3CCCC3)[C@H]3OCCC[C@H]32)s1 | -5.71 |
| O=C(NCc1nncn1-c1ccccc1)C1CC(=O)N(CC2CC2)C1 (stereo not drawn) | -18.1 |
| O=C([C@@H]1CCO[C@@H]2CCN(CC3CC3)C[C@H]21)N1CCCCO1 | 42.7 |
| Cc1nc(-c2noc3ccc(C(=O)NCCN4CCOCC4)cc23)co1 | 12.2 |
| Cc1cc(CN2C[C@@H]3COC[C@H](C(=O)N4CCCCO4)[C@@H]3C2)no1 | -11.3 |
| CCn1cc(-c2cc(C(=O)N3CCOCC3)c3cc(Cl)ccc3n2)cn1 | -5.95 |
| CC(C)CN1CCC(C(=O)NCCNC(=O)c2ccoc2)CC1 | -1.22 |
| O=C(Nc1ccc(OC(F)F)cc1)N1CCC(c2nnc[nH]2)CC1 | -2.12 |
| Cn1cc(C2=NOC(C(=O)NC3(c4cccc(F)c4)CCCC3)C2)cn1 (stereo not drawn) | -4.3 |
| Cc1cnn(CCNCc2ccc(OCc3csc(C)n3)cc2)c1 | -4.31 |
| COc1ccc(CNCC2CN(C3CC3)CCO2)cc1OC (stereo not drawn) | -7.17 |
| Cc1cc(NC(=O)NCc2nncn2C)ccc1OC(C)C | 22.5 |
| CN1CCCC1CNC(=O)CCCOc1cccc(F)c1 (stereo not drawn) | 5.1 |
| CCc1c(C)sc2nc3n(CCN4CCCCC4)nc(SC)n3c(=O)c12 | 13.4 |
| CCc1ccc(C2CCCCCN2Cc2nc(CCOC)no2)o1 (stereo not drawn) | -6.85 |
| Cc1cccc(C(=O)N2C[C@@H]3CCN(C(C)C)C[C@@H]3C2)c1 | 19 |
| Cc1ccc(CN2CCn3c(CN4CCN(C)CC4)cnc3C2C)s1 (stereo not drawn) | 21.3 |
| O=C(Nc1ccc(-c2nnc[nH]2)cc1)C1CCN1Cc1ccccc1 (stereo not drawn) | 14.7 |

| SMILES | cytotoxicity at 70.5 h [%] |
| --- | --- |
| CNc1cc(-c2cccc(CN)c2)c2cc[nH]c2n1 | -13.9 |
| CC(C)Oc1cccc(F)c1C(C(=O)O)N(C)Cc1ccon1 (stereo not drawn) | 0.036 |
| Cc1nc(C2CCCN(C(=O)c3sccc3C3CC3)C2)no1 (stereo not drawn) | -8.62 |
| Cc1ccc(-c2ccc(C3CNCCO3)nc2)cc1 (stereo not drawn) | -2.39 |
| c1ccc(NCc2cn3c(n2)CNCC3)nc1 | 2.18 |
| CCCN1CC[C@@H]2[C@@H](CO[C@H]2CNC(=O)c2nccn2C)C1 | -5.44 |
| CC(=O)N(C)Cc1ccccc1NCc1c(C)noc1C | -3.61 |
| CCN(CCC(=O)OC)C(=O)c1cccc(Cn2nc(C)cc2C)c1 | 4.14 |
| O=C(Cn1ccnc1)N(CCO)CCSc1ccc(Cl)cc1 | -8.84 |
| c1cc(COC[C@]23COC[C@H]2CN(Cc2ccsc2)C3)ccn1 | 7.32 |
| CCc1nc2n(n1)CC(NCc1cc3ccccc3o1)CC2 (stereo not drawn) | -8.62 |
| O=C(NCCNc1ncccn1)N1CC=C(c2ccccc2)CC1 | -4.56 |
| O=C(c1cccc(N2CCCC2=O)c1)N1CCCC(n2cncn2)C1 (stereo not drawn) | -8.04 |
| COc1cc2c(cc1OC)S(=O)(=O)N(Cc1cnn(C)c1)C2=O | -22.9 |
| Cc1nnc(SCCNc2cc(C3CC3)ncn2)s1 | -5.85 |
| NC(=O)C1CCCN1Cc1cccc(NC(=O)c2cc(Cl)cc(Cl)c2)c1 (stereo not drawn) | -15.9 |
| CCO[C@@H]1CC[C@H]2[C@H]1OCCN2CC1CCOCC1 | 38.8 |
| CCNc1cc2c(nn1)CCN(C(=O)c1ccc3c(c1)OCO3)C2 | -4.42 |
| CCC(NCc1ccccn1)c1ccccc1OCC(=O)NC (stereo not drawn) | -3.93 |
| Cc1cc(OCc2ccc(C(=O)O)s2)ccc1Cl | -0.232 |
| CC(CNC(=O)c1cnc[nH]1)Oc1ccc(Cl)cc1 (stereo not drawn) | -22.4 |
| Cc1nc(CN2CCOC(CNc3cccnn3)C2)cs1 (stereo not drawn) | 2.31 |
| O=S(=O)(C/C=C/c1ccccc1)Cc1nc(C2CC2)no1 | -11.4 |

| SMILES | cytotoxicity at 70.5 h [%] |
| --- | --- |
| Cc1cc2n(n1)CC(CNCc1ccnc(-n3ccnc3C)c1)CN2 (stereo not drawn) | 0.264 |
| CC(=O)Cn1c(C)cc(=O)c2cc(F)ccc21 | 1.19 |
| CCc1c(C)nc2n(c1=O)CC(C(=O)Nc1ccccc1F)CS2 (stereo not drawn) | 20.5 |
| CN(Cc1ncc[nH]1)S(=O)(=O)c1cccc(C(=O)N2CCOCC2)c1 | -2.7 |
| CCNS(=O)(=O)c1ccc(C)c(C(=O)N(C)Cc2ccccc2C)c1 | 2.99 |
| CCN(CCO)C[C@@H]1CN(C(=O)c2ccc(C)s2)C[C@@H]1CO | 34.8 |
| CN(C)Cc1cnc(C2CCN(C(=O)c3cccc(F)c3)C2)[nH]1 (stereo not drawn) | 20.2 |
| O=C(NCC(O)c1cccc(F)c1)c1cccnc1O (stereo not drawn) | -5.45 |
| CCO[C@H]1C[C@@H](O)C12CCN(C(=O)CC(F)(F)F)CC2 | -7.18 |
| CC(C)c1cc(NC(=O)CN2CCc3cncnc3C2)on1 | -11.7 |
| c1ccc2c(N3CCCCC3Cn3cccn3)ncnc2c1 (stereo not drawn) | -1.4 |
| CCCc1noc(CNC2CCCN(Cc3noc(C4CC4)n3)C2)n1 (stereo not drawn) | -3.33 |
| Cc1ccccc1CSc1nc(N)cc(N2CCC(CC(N)=O)CC2)n1 | -3.38 |
| COc1cccc2[nH]cc(CCNC(=O)N3CCCC3CO)c12 (stereo not drawn) | 2.83 |
| CCc1nc(NCC2CCCN(C(=O)C3CC3)C2)c2cnn(C)c2n1 (stereo not drawn) | -16.2 |
| Cc1ccc(CN2CCCn3c(nc(Cn4ccnc4)cc3=O)C2)o1 | -6.14 |
| Cc1nccc(-c2cccc(NCC(=O)NCC(=O)N3CCCC3)c2)n1 | -3.17 |
| CN1CCCCC1c1ccc(-n2ccnc2)nc1 (stereo not drawn) | -2.08 |
| CCc1nc2n(n1)CC(NCc1nc3ccccc3o1)CC2 (stereo not drawn) | -8.97 |
| CCn1nc(C)c(CCNC(=O)C2CCCN(C3CCCC3)C2)c1C (stereo not drawn) | 20.4 |
| Cc1nn(C(C)C)c2cn(CC(=O)NC3CCSCC3)nc12 | -3.25 |
